ChEMBL document CHEMBL1138574, “Regioselective synthesis and stereochemical structure of anti-tumor active dispiro[3H-indole-3,2'-pyrrolidine-3',3''-piperidine]-2(1H),4''-diones” (2009)

Tests used:
Format in all cases: functional
Settings in all cases: route intraperitoneal
Rattus norvegicus [1] = assay: Antiinflammatory activity in Wister albino rat assessed as inhibition of carrageenan-induced paw oedema at 50 mg/kg, ip administered 1 hr before carrageenan challenge measured after 1 hr of induction of inflammation relative to control
Rattus norvegicus [2] = assay: Antiinflammatory activity in Wister albino rat assessed as inhibition of carrageenan-induced paw oedema at 50 mg/kg, ip administered 1 hr before carrageenan challenge measured after 2 hrs of induction of inflammation relative to control
Rattus norvegicus [3] = assay: Antiinflammatory activity in Wister albino rat assessed as inhibition of carrageenan-induced paw oedema at 50 mg/kg, ip administered 1 hr before carrageenan challenge measured after 3 hrs of induction of inflammation relative to control
Rattus norvegicus [4] = assay: Antiinflammatory activity in Wister albino rat assessed as inhibition of carrageenan-induced paw oedema at 50 mg/kg, ip administered 1 hr before carrageenan challenge measured after 4 hrs of induction of inflammation relative to control
Rattus norvegicus [5] = assay: Antiinflammatory activity in Wister albino rat assessed as inhibition of carrageenan-induced paw oedema at 50 mg/kg, ip administered 1 hr before carrageenan challenge measured after 24 hrs of induction of inflammation relative to control
Rattus norvegicus [6] = assay: Antiinflammatory activity in Wister albino rat assessed as inhibition of carrageenan-induced paw oedema at 50 mg/kg, ip administered 1 hr before carrageenan challenge measured after 4 hrs of induction of inflammation relative to indomethacin
Rattus norvegicus [7] = assay: Antiinflammatory activity in Wister albino rat assessed as inhibition of carrageenan-induced paw oedema at 10 mg/kg, ip administered 1 hr before carrageenan challenge measured after 1 hr of induction of inflammation relative to control
Rattus norvegicus [8] = assay: Antiinflammatory activity in Wister albino rat assessed as inhibition of carrageenan-induced paw oedema at 10 mg/kg, ip administered 1 hr before carrageenan challenge measured after 2 hrs of induction of inflammation relative to control
Rattus norvegicus [9] = assay: Antiinflammatory activity in Wister albino rat assessed as inhibition of carrageenan-induced paw oedema at 10 mg/kg, ip administered 1 hr before carrageenan challenge measured after 3 hrs of induction of inflammation relative to control
Rattus norvegicus [10] = assay: Antiinflammatory activity in Wister albino rat assessed as inhibition of carrageenan-induced paw oedema at 10 mg/kg, ip administered 1 hr before carrageenan challenge measured after 4 hrs of induction of inflammation relative to control
Rattus norvegicus [11] = assay: Antiinflammatory activity in Wister albino rat assessed as inhibition of carrageenan-induced paw oedema at 10 mg/kg, ip administered 1 hr before carrageenan challenge measured after 24 hrs of induction of inflammation relative to control

With `CN1C/C(=C\c2ccc(-c3cccs3)cc2)C(=O)[C@]2(C1)[C@@H](c1ccc(-c3cccs3)cc1)CN(C)[C@@]21C(=O)Nc2ccccc21` the inhibition in vivo at 50 mg/kg (Rattus norvegicus [1]) was 68%, the inhibition in vivo at 50 mg/kg (Rattus norvegicus [2]) was 70.7% and the inhibition in vivo at 50 mg/kg (Rattus norvegicus [3]) was 74.8%. For the same compound, the inhibition in vivo at 50 mg/kg (Rattus norvegicus [4]) was 71.4%, the inhibition in vivo at 50 mg/kg (Rattus norvegicus [5]) was 79.8% and the inhibition in vivo at 50 mg/kg (Rattus norvegicus [6]) was 126%.
For `CN1C/C(=C\c2ccc(Br)cc2)C(=O)[C@]2(C1)[C@@H](c1ccc(Br)cc1)CN(C)[C@@]21C(=O)N(C)c2ccccc21`, the inhibition in vivo at 50 mg/kg (Rattus norvegicus [1]) was 53.5%, the inhibition in vivo at 50 mg/kg (Rattus norvegicus [2]) was 49.1% and the inhibition in vivo at 50 mg/kg (Rattus norvegicus [3]) was 47.6%. It also gave an inhibition in vivo at 50 mg/kg (Rattus norvegicus [4]) of 46.8%, an inhibition in vivo at 50 mg/kg (Rattus norvegicus [5]) of 83.5% and an inhibition in vivo at 50 mg/kg (Rattus norvegicus [6]) of 82.8%.
`CN1C/C(=C\c2ccc(F)cc2)C(=O)[C@]2(C1)[C@@H](c1ccc(F)cc1)CN(C)[C@@]21C(=O)N(C)c2ccccc21` was tested, and the inhibition in vivo at 50 mg/kg (Rattus norvegicus [1]) was 75.8%, the inhibition in vivo at 50 mg/kg (Rattus norvegicus [2]) was 62% and the inhibition in vivo at 50 mg/kg (Rattus norvegicus [3]) was 55.8%. The inhibition in vivo at 50 mg/kg (Rattus norvegicus [4]) was 47.2%, the inhibition in vivo at 50 mg/kg (Rattus norvegicus [5]) was 27.2% and the inhibition in vivo at 50 mg/kg (Rattus norvegicus [6]) was 83.5%.
`Cc1ccc(/C=C2\CN(C)C[C@@]3(C2=O)[C@@H](c2ccc(C)cc2)CN(C)[C@@]32C(=O)N(C)c3ccccc32)cc1` gave an inhibition in vivo at 50 mg/kg (Rattus norvegicus [1]) of 53.5%, an inhibition in vivo at 50 mg/kg (Rattus norvegicus [2]) of 62% and an inhibition in vivo at 50 mg/kg (Rattus norvegicus [3]) of 65%. It also gave an inhibition in vivo at 50 mg/kg (Rattus norvegicus [4]) of 68.8%, an inhibition in vivo at 50 mg/kg (Rattus norvegicus [5]) of 57% and an inhibition in vivo at 50 mg/kg (Rattus norvegicus [6]) of 122%.
`CN1C/C(=C\c2ccc(F)cc2)C(=O)[C@]2(C1)[C@@H](c1ccc(F)cc1)CN(C)[C@@]21C(=O)Nc2ccccc21` gave an inhibition in vivo at 50 mg/kg (Rattus norvegicus [1]) of 80.1%, an inhibition in vivo at 50 mg/kg (Rattus norvegicus [2]) of 78.4% and an inhibition in vivo at 50 mg/kg (Rattus norvegicus [3]) of 70.9%. For the same compound, the inhibition in vivo at 50 mg/kg (Rattus norvegicus [4]) was 61.5%, the inhibition in vivo at 50 mg/kg (Rattus norvegicus [5]) was 57% and the inhibition in vivo at 50 mg/kg (Rattus norvegicus [6]) was 109%.
Compound `CN1C/C(=C\c2ccccc2)C(=O)[C@]2(C1)[C@@H](c1ccccc1)CN(C)[C@@]21C(=O)N(C)c2ccccc21` has an inhibition in vivo at 50 mg/kg (Rattus norvegicus [1]) of 68%, an inhibition in vivo at 50 mg/kg (Rattus norvegicus [2]) of 70.7% and an inhibition in vivo at 50 mg/kg (Rattus norvegicus [3]) of 75.6%. It also gave an inhibition in vivo at 50 mg/kg (Rattus norvegicus [4]) of 68.8%, an inhibition in vivo at 50 mg/kg (Rattus norvegicus [5]) of 26.5% and an inhibition in vivo at 50 mg/kg (Rattus norvegicus [6]) of 122%.
For `Cc1ccc(/C=C2\CN(C)C[C@@]3(C2=O)[C@@H](c2ccc(C)cc2)CN(C)[C@@]32C(=O)Nc3ccccc32)cc1`, the inhibition in vivo at 50 mg/kg (Rattus norvegicus [1]) was 69.2%, the inhibition in vivo at 50 mg/kg (Rattus norvegicus [2]) was 52.1% and the inhibition in vivo at 50 mg/kg (Rattus norvegicus [3]) was 50.9%. The inhibition in vivo at 50 mg/kg (Rattus norvegicus [4]) was 50.7%, the inhibition in vivo at 50 mg/kg (Rattus norvegicus [5]) was 22.1% and the inhibition in vivo at 50 mg/kg (Rattus norvegicus [6]) was 89.7%.
For `CN1C/C(=C\c2ccccc2)C(=O)[C@]2(C1)[C@@H](c1ccccc1)CN(C)[C@@]21C(=O)Nc2ccccc21`, the inhibition in vivo at 50 mg/kg (Rattus norvegicus [1]) was 77%, the inhibition in vivo at 50 mg/kg (Rattus norvegicus [2]) was 73.3% and the inhibition in vivo at 50 mg/kg (Rattus norvegicus [3]) was 71.4%. It also gave an inhibition in vivo at 50 mg/kg (Rattus norvegicus [4]) of 70.9%, an inhibition in vivo at 50 mg/kg (Rattus norvegicus [5]) of 65.1% and an inhibition in vivo at 50 mg/kg (Rattus norvegicus [6]) of 126%.
`CN1C/C(=C\c2ccc(Br)cc2)C(=O)[C@]2(C1)[C@@H](c1ccc(Br)cc1)CN(C)[C@@]21C(=O)Nc2ccccc21` gave an inhibition in vivo at 50 mg/kg (Rattus norvegicus [1]) of 77.7%, an inhibition in vivo at 50 mg/kg (Rattus norvegicus [2]) of 69.3% and an inhibition in vivo at 50 mg/kg (Rattus norvegicus [3]) of 65.2%. The inhibition in vivo at 50 mg/kg (Rattus norvegicus [4]) was 66.8%, the inhibition in vivo at 50 mg/kg (Rattus norvegicus [5]) was 82.7% and the inhibition in vivo at 50 mg/kg (Rattus norvegicus [6]) was 118%.
`COc1ccc2c(c1)c(CC(=O)O)c(C)n2C(=O)c1ccc(Cl)cc1` [INDOMETHACIN] showed an inhibition in vivo at 10 mg/kg (Rattus norvegicus [7]) of 72.9%, an inhibition in vivo at 10 mg/kg (Rattus norvegicus [8]) of 70.7% and an inhibition in vivo at 10 mg/kg (Rattus norvegicus [9]) of 61.3%. For the same compound, the inhibition in vivo at 10 mg/kg (Rattus norvegicus [10]) was 56.5% and the inhibition in vivo at 10 mg/kg (Rattus norvegicus [11]) was 57%.
